Patent US20250002455A1, “NEW N-PHENYLPYRROLAMIDE INHIBITORS OF DNA GYRASE AND TOPOISOMERASE IV WITH ANTIBACTERIAL ACTIVITY” (priority 2020, published 2025)
In brackets after ≈: the same amount, converted by molar mass.

Assays:
P. aeruginosa ATCC 27853 = assay: Microbroth dilution MIC (CLSI); format: cell-based; settings: Pseudomonas aeruginosa, ATCC27853; P. aeruginosa ATCC 27853; read-out: MIC
Experimental: (§1) The chemical entities described in the present invention were assessed for their antimicrobial activity using a microbroth dilution assay as recommended by the CLSI (Methods for Dilution Antimicrobial Susceptibility Tests for Bacteria That Grow Aerobically, and Methods for Antimicrobial Susceptibility Testing of Anaerobic Bacteria, Clinical and Laboratory Standards Institute, Document M07-A8, and M11-A8, Wayne, PA 19087, USA, 2012.). Compounds were dissolved by using 100% DMSO. Serial two-fold dilutions of each compound were made by using 100% DMSO as the diluent.
(§2) A library of Gram-negative and Gram-positive microbes and their drug- and multidrug-resistant variants were employed as test organisms. The MIC (minimum inhibitory concentration) was determined as the lowest concentration of an individual drug that lead to no visible growth.

[1] = system: E. spp. cloacae ATCC 13047; assay: Microbroth dilution MIC (CLSI); format: cell-based; settings: Enterobacter cloacae, ATCC13047; E. spp. cloacae ATCC 13047; read-out: MIC
Experimental: as §1, §2

A. baumannii ATCC 17978 = assay: Microbroth dilution MIC (CLSI); format: cell-based; settings: Acinetobacter baumannii, ATCC17978; A. baumannii ATCC 17978; read-out: MIC
Experimental: as §1, §2

E. faecium ATCC 700221 = assay: Microbroth dilution MIC (CLSI); format: cell-based; settings: Enterococcus faecium, ATCC700221; E. faecium ATCC 700221; read-out: MIC
Experimental: as §1, §2

S. aureus ATCC 29213 = assay: Microbroth dilution MIC (CLSI); format: cell-based; settings: Staphylococcus aureus, ATCC29213; S. aureus ATCC 29213; read-out: MIC
Experimental: as §1, §2

[2] = system: S. aureus ATCC 43300 (MRSA); assay: Microbroth dilution MIC (CLSI); format: cell-based; settings: Staphylococcus aureus; S. aureus ATCC 43300 (MRSA); read-out: MIC
Experimental: as §1, §2

K. pneumoniae ATCC 10031 = assay: Microbroth dilution MIC (CLSI); format: cell-based; settings: Klebsiella pneumoniae, ATCC10031; K. pneumoniae ATCC 10031; read-out: MIC
Experimental: as §1, §2

E. faecalis ATCC 29212 = assay: Microbroth dilution MIC (CLSI); format: cell-based; settings: Enterococcus faecalis, ATCC29212; E. faecalis ATCC 29212; read-out: MIC
Experimental: as §1, §2

E. coli ATCC 25922 = assay: Microbroth dilution MIC (CLSI); format: cell-based; settings: Escherichia coli, ATCC25922; E. coli ATCC 25922; read-out: MIC
Experimental: as §1, §2

[3] = system: S. aureus ATCC 700699 (VISA); assay: Microbroth dilution MIC (CLSI); format: cell-based; settings: Staphylococcus aureus; S. aureus ATCC 700699 (VISA); read-out: MIC
Experimental: as §1, §2

E. coli DNA gyrase = target: T1, E. coli DNA gyrase (Escherichia coli, UniProt P0AES6); assay: biochemical; settings: E. coli DNA gyrase; for IC50: read-out: IC50
T1 construct: purchased Inspiralis
Experimental: (§3) Inhibitory activities for compounds of the present invention were determined on E. coli and S. aureus DNA gyrase and topoisomerase IV in an assay from Inspiralis on streptavidin-coated 96-well microtiter plates from Thermo scientific Pierce. […] After washing off the unbound oligonucleotide, the enzyme test was performed. […] Reaction solutions were incubated at 37° C. for 30 min. After that, the TF buffer (50 mM NaOAc with pH 5.0, 50 mM NaCl and 50 mM MgCl2) was added to terminate the enzymatic reaction. After additional incubation for 30 min at rt, during which biotin-oligonucleotide-plasmid triplex was formed, the unbound plasmid was washed off using TF buffer and SybrGOLD in T10 buffer (10 mM Tris HCl with pH 8.0 and 1 mM EDTA) was added. […] GraphPad Prism 6.0 software was used to calculate the IC50 values. The result is given as the average value of three independent measurements. […] Chemoth.

E. coli topoisomerase IV = target: T2, E. coli topoisomerase IV (Escherichia coli, UniProt P20083); assay: biochemical; settings: E. coli topo IV; for IC50: read-out: IC50; for remaining activity at 10 µM: 10 μM compound
T2 construct: purchased Inspiralis
Experimental: Inhibitory activities for compounds of the present invention were determined on E. coli and S. aureus DNA gyrase and topoisomerase IV in an assay from Inspiralis on streptavidin-coated 96-well microtiter plates from Thermo scientific Pierce. […] After washing off the unbound oligonucleotide, the enzyme test was performed. […] Reaction solutions were incubated at 37° C. for 30 min. After that, the TF buffer (50 mM NaOAc with pH 5.0, 50 mM NaCl and 50 mM MgCl2) was added to terminate the enzymatic reaction. After additional incubation for 30 min at rt, during which biotin-oligonucleotide-plasmid triplex was formed, the unbound plasmid was washed off using TF buffer and SybrGOLD in T10 buffer (10 mM Tris HCl with pH 8.0 and 1 mM EDTA) was added. […] Initial screening was done at 100 or 10 nM concentration of inhibitors against E. coli DNA gyrase or 1 μM or 100 nM concentration against S. aureus DNA gyrase and E. coli and S. aureus topo IV. […] GraphPad Prism 6.0 software was used to calculate the IC50 values. The result is given as the average value of three independent measurements. […] Chemoth.

S. aureus DNA gyrase = target: T3, S. aureus DNA gyrase (Staphylococcus aureus, UniProt P0A0K8); assay: biochemical; settings: S. aureus DNA gyrase; read-out: IC50
T3 construct: purchased Inspiralis
Experimental: as §3

[4] = read-out: RA (residual activity of the enzyme)

T2 sequence (P0AFI2 whole entry): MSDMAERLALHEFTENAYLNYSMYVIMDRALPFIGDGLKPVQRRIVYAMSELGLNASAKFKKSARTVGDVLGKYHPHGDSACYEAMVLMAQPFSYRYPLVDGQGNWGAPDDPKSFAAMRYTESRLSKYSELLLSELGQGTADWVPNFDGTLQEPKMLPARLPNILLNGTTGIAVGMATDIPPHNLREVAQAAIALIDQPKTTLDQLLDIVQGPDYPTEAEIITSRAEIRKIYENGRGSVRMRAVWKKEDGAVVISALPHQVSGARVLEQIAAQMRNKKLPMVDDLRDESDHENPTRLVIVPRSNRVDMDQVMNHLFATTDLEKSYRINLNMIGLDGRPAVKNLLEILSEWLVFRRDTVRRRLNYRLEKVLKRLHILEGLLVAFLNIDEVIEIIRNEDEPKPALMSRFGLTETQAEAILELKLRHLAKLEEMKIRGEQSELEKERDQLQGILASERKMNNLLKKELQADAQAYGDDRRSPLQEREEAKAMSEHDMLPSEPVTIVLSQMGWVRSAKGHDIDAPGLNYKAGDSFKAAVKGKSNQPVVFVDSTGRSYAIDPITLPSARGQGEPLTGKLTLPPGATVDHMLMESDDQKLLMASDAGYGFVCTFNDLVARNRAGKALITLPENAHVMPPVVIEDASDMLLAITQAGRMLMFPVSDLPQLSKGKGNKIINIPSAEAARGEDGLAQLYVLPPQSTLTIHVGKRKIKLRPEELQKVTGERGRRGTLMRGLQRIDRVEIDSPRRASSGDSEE
T2 sequence (P20083 whole entry): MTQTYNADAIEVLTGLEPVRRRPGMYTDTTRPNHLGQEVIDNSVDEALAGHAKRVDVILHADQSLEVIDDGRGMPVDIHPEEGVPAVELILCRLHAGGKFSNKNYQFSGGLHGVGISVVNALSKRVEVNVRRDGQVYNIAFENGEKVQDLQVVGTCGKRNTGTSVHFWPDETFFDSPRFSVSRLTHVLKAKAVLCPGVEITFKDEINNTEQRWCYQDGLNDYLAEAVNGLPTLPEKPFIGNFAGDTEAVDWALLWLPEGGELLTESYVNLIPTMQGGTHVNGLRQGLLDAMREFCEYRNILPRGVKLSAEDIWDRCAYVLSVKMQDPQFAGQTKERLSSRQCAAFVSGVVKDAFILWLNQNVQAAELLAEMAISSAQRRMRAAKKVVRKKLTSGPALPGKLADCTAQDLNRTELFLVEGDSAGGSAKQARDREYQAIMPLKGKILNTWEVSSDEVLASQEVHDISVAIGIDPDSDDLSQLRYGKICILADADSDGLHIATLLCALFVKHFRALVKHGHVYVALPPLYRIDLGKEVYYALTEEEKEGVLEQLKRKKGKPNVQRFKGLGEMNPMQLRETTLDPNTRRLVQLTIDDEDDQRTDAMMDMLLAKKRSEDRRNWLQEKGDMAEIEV
T3 sequence (P20831 whole entry): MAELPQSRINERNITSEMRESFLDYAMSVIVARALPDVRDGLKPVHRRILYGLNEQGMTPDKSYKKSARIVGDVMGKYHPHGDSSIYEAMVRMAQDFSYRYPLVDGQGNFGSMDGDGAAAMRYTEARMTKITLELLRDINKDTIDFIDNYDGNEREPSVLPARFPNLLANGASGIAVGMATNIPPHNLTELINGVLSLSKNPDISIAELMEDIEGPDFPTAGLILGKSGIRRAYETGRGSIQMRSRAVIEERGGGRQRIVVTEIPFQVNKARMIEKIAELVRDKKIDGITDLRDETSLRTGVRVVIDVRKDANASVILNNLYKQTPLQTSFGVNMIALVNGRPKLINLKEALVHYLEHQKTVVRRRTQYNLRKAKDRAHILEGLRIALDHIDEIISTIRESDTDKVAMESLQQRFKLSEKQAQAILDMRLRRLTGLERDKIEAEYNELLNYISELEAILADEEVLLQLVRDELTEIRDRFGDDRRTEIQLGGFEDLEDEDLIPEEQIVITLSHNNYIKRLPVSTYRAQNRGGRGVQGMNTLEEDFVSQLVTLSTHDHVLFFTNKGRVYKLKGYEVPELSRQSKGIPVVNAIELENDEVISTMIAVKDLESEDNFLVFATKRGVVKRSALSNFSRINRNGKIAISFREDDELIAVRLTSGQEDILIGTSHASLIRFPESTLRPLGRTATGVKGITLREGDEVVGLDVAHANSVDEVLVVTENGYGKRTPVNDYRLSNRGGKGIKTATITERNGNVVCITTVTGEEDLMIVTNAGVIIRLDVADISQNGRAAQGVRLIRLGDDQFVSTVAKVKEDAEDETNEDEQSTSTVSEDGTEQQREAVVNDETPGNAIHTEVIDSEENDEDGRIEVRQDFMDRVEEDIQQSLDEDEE
T3 sequence (P0A0K8 whole entry): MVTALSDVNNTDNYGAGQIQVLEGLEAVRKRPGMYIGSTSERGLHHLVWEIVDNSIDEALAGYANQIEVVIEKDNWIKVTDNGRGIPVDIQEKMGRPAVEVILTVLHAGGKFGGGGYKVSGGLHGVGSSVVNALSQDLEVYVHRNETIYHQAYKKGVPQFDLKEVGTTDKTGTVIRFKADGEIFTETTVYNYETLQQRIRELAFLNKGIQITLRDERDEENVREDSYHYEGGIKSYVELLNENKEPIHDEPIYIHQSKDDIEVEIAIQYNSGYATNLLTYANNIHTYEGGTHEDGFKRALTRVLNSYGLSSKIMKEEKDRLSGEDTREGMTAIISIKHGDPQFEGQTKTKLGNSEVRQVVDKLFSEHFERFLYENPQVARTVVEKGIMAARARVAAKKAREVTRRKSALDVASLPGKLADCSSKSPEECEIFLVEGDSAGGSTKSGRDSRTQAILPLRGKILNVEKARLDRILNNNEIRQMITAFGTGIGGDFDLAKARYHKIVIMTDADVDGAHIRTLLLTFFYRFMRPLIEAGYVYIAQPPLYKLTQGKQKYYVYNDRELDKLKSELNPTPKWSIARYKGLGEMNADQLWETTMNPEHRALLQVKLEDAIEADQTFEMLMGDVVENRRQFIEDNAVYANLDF

Row | Compound | MIC (P. aeruginosa ATCC 27853) | MIC [1] | MIC (A. baumannii ATCC 17978) | MIC (E. faecium ATCC 700221) | MIC (S. aureus ATCC 29213) | MIC [2] | MIC (K. pneumoniae ATCC 10031) | MIC (E. faecalis ATCC 29212) | MIC (E. coli ATCC 25922) | MIC [3] | IC50 (E. coli DNA gyrase) | remaining activity at 0.1 µM (E. coli topoisomerase IV; 0.1 μM compound, read-out: RA (residual activity of the enzyme)) | remaining activity at 1 µM (E. coli topoisomerase IV; 1 μM compound, read-out: RA (residual activity of the enzyme)) | IC50 (S. aureus DNA gyrase) | IC50 (E. coli topoisomerase IV) | remaining activity at 10 µM (E. coli topoisomerase IV; [4]) | remaining activity at 10 pM (E. coli DNA gyrase; 0.01 nM compound, read-out: RA (residual activity of the enzyme)) | remaining activity at 0.0001 µM (E. coli DNA gyrase; 0.1 nM compound, read-out: RA (residual activity of the enzyme)) | remaining activity at 0.01 µM (E. coli DNA gyrase; 10 nM compound, read-out: RA (residual activity of the enzyme))
1 | Cc1[nH]c(C(=O)Nc2ccc(-c3noc(=O)[nH]3)cc2N2CCC(N)CC2)c(Cl)c1Cl.Cl [Example 1, 1-(2-(3,4-Dichloro-5-methyl-1H-pyrrole-2-carboxamido)-5-(5-oxo-4,5-dihydro-1,2,4-oxadiazol-3-yl)phenyl)piperidin-4-aminium chloride] | ≥ 64 µg/mL | ≥ 64 µg/mL | ≥ 64 µg/mL | 32 µg/mL | 64 µg/mL | 32 µg/mL | 64 µg/mL | 32 µg/mL | ≥ 64 µg/mL | 16 µg/mL | 0.253 nM | 105% | 33% | – | – | – | – | – | –
2 | Cc1[nH]c(C(=O)Nc2ccc(-c3noc(=O)[nH]3)cc2N2CCCC(N)C2)c(Cl)c1Cl.Cl (stereo not drawn) [Example 2, 1-(2-(3,4-Dichloro-5-methyl-1H-pyrrole-2-carboxamido)-5-(5-oxo-4,5-dihydro-1,2,4-oxadiazol-3-yl)phenyl)piperidin-3-aminium chloride] | > 64 µg/mL | > 64 µg/mL | > 64 µg/mL | 8 µg/mL | > 64 µg/mL | > 64 µg/mL | 16 µg/mL | 8 µg/mL | > 64 µg/mL | > 64 µg/mL | 2.49 nM | – | – | 55.8 nM | 145 nM | – | – | – | –
3 | Cc1[nH]c(C(=O)Nc2ccc(-c3noc(=O)[nH]3)cc2N2CCCC(CN)C2)c(Cl)c1Cl.Cl (stereo not drawn) [Example 3, (1-(2-(3,4-Dichloro-5-methyl-1H-pyrrole-2-carboxamido)-5-(5-oxo-4,5-dihydro-1,2,4-oxadiazol-3-yl)phenyl)piperidin-3-yl)methanaminium chloride] | > 64 µg/mL | > 64 µg/mL | > 64 µg/mL | 2 µg/mL | 4 µg/mL | 4 µg/mL | 2 µg/mL | 0.25 µg/mL | > 64 µg/mL | 2 µg/mL | 3.19 nM | – | – | 24.1 nM | 41.8 nM | – | – | – | –
4 | Cc1[nH]c(C(=O)Nc2ccc(-c3n[nH]c(=O)o3)cc2OCc2ccccc2)c(Cl)c1Cl [Example 11, N-(2-(Benzyloxy)-4-(5-oxo-4,5-dihydro-1,3,4-oxadiazol-2-yl)phenyl)-3,4-dichloro-5-methyl-1H-pyrrole-2-carboxamide] | ≥ 32 µg/mL | ≥ 32 µg/mL | ≥ 32 µg/mL | ≥ 32 µg/mL | ≥ 32 µg/mL | ≥ 32 µg/mL | ≥ 32 µg/mL | ≥ 32 µg/mL | ≥ 32 µg/mL | ≥ 32 µg/mL | 886 nM | – | – | – | – | 106% | – | – | –
5 | Cc1[nH]c(C(=O)Nc2ccc(-n3nn[nH]c3=O)cc2N2CCN(c3ccccc3)CC2)c(Cl)c1Cl [Example 24, 3,4-Dichloro-5-methyl-N-(4-(5-oxo-4,5-dihydro-1H-tetrazol-1-yl)-2-(4-phenylpiperazin-1-yl)phenyl)-1H-pyrrole-2-carboxamide] | ≥ 32 µg/mL | ≥ 32 µg/mL | ≥ 32 µg/mL | 0.5 µg/mL (≈ 0.974 µM) | ≥ 32 µg/mL | ≥ 32 µg/mL | ≥ 32 µg/mL | 0.5 µg/mL (≈ 0.974 µM) | ≥ 32 µg/mL | 0.5 µg/mL (≈ 0.974 µM) | 7.8 nM | – | – | – | – | – | – | – | –
6 | Cc1[nH]c(C(=O)Nc2ccc(-n3nn[nH]c3=O)cc2N2Cc3ccccc3C2)c(Cl)c1Cl [Example 25, 3,4-Dichloro-N-(2-(isoindolin-2-yl)-4-(5-oxo-4,5-dihydro-1H-tetrazol-1-yl)phenyl)-5-methyl-1H-pyrrole-2-carboxamide] | > 64 µg/mL | > 64 µg/mL | > 64 µg/mL | 0.5 µg/mL (≈ 1.06 µM) | 16 µg/mL (≈ 34 µM) | > 64 µg/mL | > 64 µg/mL | 0.25 µg/mL (≈ 0.532 µM) | > 64 µg/mL | > 64 µg/mL | – | – | – | – | – | 105% | 73% | 26% | –
7 | Cc1[nH]c(C(=O)Nc2ccc(-c3n[nH]c(=O)o3)cc2OC2CCNC2)c(Cl)c1Cl.Cl (stereo not drawn) [Example 26, 3-(2-(3,4-Dichloro-5-methyl-1H-pyrrole-2-carboxamido)-5-(5-oxo-4,5-dihydro-1,3,4-oxadiazol-2-yl)phenoxy)pyrrolidin-1-ium chloride] | ≥ 32 µg/mL | ≥ 32 µg/mL | ≥ 32 µg/mL | ≥ 32 µg/mL | ≥ 32 µg/mL | ≥ 32 µg/mL | ≥ 32 µg/mL | ≥ 32 µg/mL | ≥ 32 µg/mL | ≥ 32 µg/mL | 3.54 nM | – | – | – | – | – | – | – | –
8 | Cc1[nH]c(C(=O)Nc2ccc(-c3n[nH]c(=O)o3)cc2OC2CCNCC2)c(Cl)c1Cl.Cl [Example 27, 4-(2-(3,4-Dichloro-5-methyl-1H-pyrrole-2-carboxamido)-5-(5-oxo-4,5-dihydro-1,3,4-oxadiazol-2-yl)phenoxy)piperidin-1-ium chloride] | ≥ 32 µg/mL | ≥ 32 µg/mL | ≥ 32 µg/mL | 8 µg/mL | 16 µg/mL | 8 µg/mL | 0.125 µg/mL | > 64 µg/mL | ≥ 32 µg/mL | ≥ 64 µg/mL | 2.26 nM | – | – | – | – | – | – | – | –
9 | Cc1[nH]c(C(=O)Nc2ccc(-c3n[nH]c(=O)o3)cc2OCC2CCCNC2)c(Cl)c1Cl.Cl (stereo not drawn) [Example 28, 3-((2-(3,4-Dichloro-5-methyl-1H-pyrrole-2-carboxamido)-5-(5-oxo-4,5-dihydro-1,3,4-oxadiazol-2-yl)phenoxy)methyl)piperidin-1-ium chloride] | > 64 µg/mL | > 64 µg/mL | > 64 µg/mL | > 64 µg/mL | > 64 µg/mL | > 64 µg/mL | 0.5 µg/mL | > 64 µg/mL | > 64 µg/mL | > 64 µg/mL | 0.75 nM | – | – | – | – | – | – | – | –
10 | Cc1[nH]c(C(=O)Nc2ccc(-c3n[nH]c(=O)o3)cc2OCCC2CCNCC2)c(Cl)c1Cl.Cl [Example 29, 4-(2-(2-(3,4-Dichloro-5-methyl-1H-pyrrole-2-carboxamido)-5-(5-oxo-4,5-dihydro-1,3,4-oxadiazol-2-yl)phenoxy)ethyl)piperidin-1-ium chloride] | ≥ 32 µg/mL | ≥ 32 µg/mL | ≥ 32 µg/mL | ≥ 32 µg/mL | ≥ 32 µg/mL | ≥ 32 µg/mL | ≥ 32 µg/mL | ≥ 32 µg/mL | ≥ 32 µg/mL | ≥ 32 µg/mL | – | – | – | – | – | 103% | – | – | 1%
